Patent publication US12655120B2, “GPR52 modulator compounds” (NXERA PHARMA UK LIMITED, priority 2020, dated 2026)

Columns and labels:
human GPR52 = target: T1, human GPR52 (Homo sapiens, UniProt Q9Y2T5); experiment: GPR52 Agonist Functional cAMP Assay; format: cell-based; settings: normalised to DMSO (0%) and maximal compound 7m (J. Med. Chem., 2014, 57, 5226) response (100%)
T1 construct: expressed in transfected cells; host or cells: HEKf suspension cells infected with BacMam virus
Procedure: HEKf suspension cells were infected for 24 h with 0.1% v/v human GPR52 expressing BacMam virus, a modified baculovirus designed for mammalian gene expression. Following BacMam infection, cells were pelleted by centrifugation (335 g, 5 min), resuspended in cell freezing medium (Sigma) and frozen at −150° C. until required. On experiment day, 25 nL GPR52 compound dilutions, prepared in DMSO, were stamped onto proxiplates (PerkinElmer) by a LabCyte ECHO acoustic dispenser. Frozen cells were thawed and resuspended in assay stimulation buffer (Cisbio) containing 0.5 mM 3-iso-butyl-1-methylxanthine (IBMX, Sigma) to achieve a density of 2000 cells per well. 10 μl cells were added to assay plates using a Multidrop Combi Reagent Dispenser (ThermoFisher) before centrifugation (335 g, 1 min). Cells were incubated with compounds at 37° C. for 30 min prior to addition of cAMP detection reagents (HiRange cAMP kit, Cisbio) which were prepared according to the manufacturer's instructions. Plates were shaken for 1 h at room temperature before reading on a PHERAstar FS plate reader (BMG Labtech) using standard HTRF settings. HTRF ratios were obtained by dividing the acceptor emissions (665 nm) by the donor emissions (620 nm) and multiplying by 10,000.

[1] = Pharmacokinetic profiling in male Sprague-Dawley rats (IV and PO); format: in vivo; settings: plasma, Rat PO, 3 mg/kg, n = 3, mean ± standard deviation
Procedure: The pharmacokinetic profiles of Example 39 were assessed in male Sprague-Dawley rats via intravenous (IV) and oral (per os, PO) routes of delivery. Pharmacokinetic data (mean values ±standard deviation) for Example 39 of the invention are detailed in Table 5.
Methods: For pharmacokinetic analysis, groups of three male Sprague-Dawley rats, ranging in weight between 200 and 230 g, were administered a single dose of Example 39 via IV or PO route, using the doses, dose volumes and vehicles specified in Table 5. Following dosing, blood samples were taken at several time points (pre-dose, 2 min, 5 min, 15 min, 30 min, 1 h, 3 h, 6 h, 12 h and 24 h for IV administration and pre-dose, 5 min, 15 min, 30 min, 1 hr, 2 h, 4 h, 8 h, 12 h and 24 h for PO administration) via serial tail vein bleeds, and centrifuged to separate plasma for analysis by LC-MS/MS. WinNonlin v8.2 statistics software (Pharsight Corporation, California, USA) was used to generate pharmacokinetic parameters using non-compartmental analysis.

[2] = tested on: caffeine-induced hyperlocomotor activity; experiment: Caffeine-induced locomotor activity in rat; format: in vivo, male Sprague-Dawley rats; settings: 0.1, 0.3, 1 and 3 mg/kg PO, 60 min before caffeine 15 mg/kg s.c.; statistical significance at 1 and 3 mg/kg
Text: Caffeine, a non-selective adenosine receptor antagonist, is a psychostimulant which increases rodent locomotor activity principally via blockade of A2A receptors (Br. J. Pharmacol., 2000, 129, 1465). These receptors are densely expressed on the terminals of GABAergic striatopallidal neurons in the indirect pathway of the basal ganglia, in which dopamine D2 receptors are co-expressed (J. Comp. Neurol., 1998, 401, 163; J. Comp. Neurol., 2001, 431, 331). Tonic activation of A2A receptors decreases the affinity of D2 receptors to dopamine and antagonism of A2A receptors facilitates dopaminergic signalling (Curr. Pharm. Des., 2008, 14, 1468). […] Male Sprague-Dawley rats (200-250 g) were housed in groups with a 12 h light/dark cycle (lights on at 07.00), at an ambient temperature of 21±2° C. and with standard pelleted diet and water adlibitum. Testing was carried out in the light phase. On the day of the experiment, animals were habituated to the locomotor cages for a 60-minute period. Subsequently, they were dosed with vehicle or Example 39 (0.1, 0.3, 1 and 3 mg/kg) by the oral route and returned to the appropriate locomotor cage. Example 39 was formulated in a vehicle of 10% DMAC, 10% solutol (Kolliphor HS15) and 80% water (v/v/v). […] Locomotor activity was assessed for a 2 h period after caffeine treatment. […] SEMs were calculated from the residuals of the statistical model. […]

T1 sequence (Q9Y2T5 whole entry): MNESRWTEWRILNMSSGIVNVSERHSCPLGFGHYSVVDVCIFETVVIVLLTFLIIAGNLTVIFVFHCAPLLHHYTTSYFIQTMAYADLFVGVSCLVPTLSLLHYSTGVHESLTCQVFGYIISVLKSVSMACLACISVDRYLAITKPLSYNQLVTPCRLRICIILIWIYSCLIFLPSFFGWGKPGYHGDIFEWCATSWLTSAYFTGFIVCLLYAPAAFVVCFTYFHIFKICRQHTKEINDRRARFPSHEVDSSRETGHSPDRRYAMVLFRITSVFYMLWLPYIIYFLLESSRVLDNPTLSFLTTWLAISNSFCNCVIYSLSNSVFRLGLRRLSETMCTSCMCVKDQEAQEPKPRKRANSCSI

Emax (human GPR52): 101% | bioavailability [1]: 77.4 ± 14.9%
SMILES: Cc1nn(-c2cc(Cc3cc(F)cc(C(F)(F)F)c3)ccn2)c(CO)c1C(N)=O [Example 39, 1-(4-(3-fluoro-5-(trifluoromethyl)benzyl)pyridin-2-yl)-5-(hydroxymethyl)-3-methyl-1H-pyrazole-4-carboxamide]
effect on caffeine-induced hyperlocomotor response [2]: dose-dependent reduction
